Where two headings read alike, the source gives them in different places.
How the values were obtained:
[1] = target: T1, GT1a D168A NS3/4A protease (UniProt P27958, D1194A, species not given); assay type: biochemical, Hepatitis C virus
T1 construct: rows headed: Ki (nM) D168A; Ki D168A; other: D168A variant
Procedure, shortened: (§1)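 NS3/4A protease (2 nM; wild-type GT1a or D168A) pre-incubated 1 h at room temperature with increasing inhibitor in 50 mM Tris pH 7.5, 5% glycerol, 10 mM DTT, 0.6 mM LDAO, 4% DMSO. Ki from three independent data sets per construct; ΔG=RTlnKi.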

[2] = target: GT1a D168A NS3/4A protease; assay type: biochemical, Hepatitis C virus; conditions: fold change in Ki, D168A relative to WT
Procedure, shortened: as §1

[3] = target: T2, wild-type GT1a NS3/4A protease (UniProt P27958); assay type: biochemical, Hepatitis C virus
T2 construct: Ki WT; other: wild-type HCV NS3/4A protease
Procedure, shortened: as §1

[4] = test system: wild-type HCV replicon in Huh7 cells; assay: Cell-based drug susceptibility (replicon) assay, wild-type; conditions: Hepatitis C virus, Huh-7, Table 9; read-out: Replicon EC50 (nM) WT
Procedure, shortened: (§2)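 Replication is assessed in Huh7 cells electroporated with chimeric replicon RNA (Con1 1b luciferase reporter, H77 1a NS3) under escalating protease inhibitor concentrations, measuring relative light units at 96 h.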

[5] = test system: HCV replicon A156T variant in Huh7 cells; assay: microbe, parasite or virus in culture; assay type: cell-based, Hepatitis C virus
Procedure, shortened: as §2

[6] = test system: HCV replicon D168A variant in Huh7 cells; assay: microbe, parasite or virus in culture; assay type: cell-based, Hepatitis C virus
Procedure, shortened: as §2

[7] = test system: HCV replicon R155K variant in Huh7 cells; assay: microbe, parasite or virus in culture; assay type: cell-based, Hepatitis C virus
Procedure, shortened: as §2

[8] = test system: HCV replicon D168V variant in Huh7 cells; assay: microbe, parasite or virus in culture; assay type: cell-based, Hepatitis C virus
Procedure, shortened: as §2

[9] = target: GT1a R155K NS3/4A protease (UniProt P27958, R1181K, species not given); assay type: biochemical, Hepatitis C virus
Procedure, shortened: (§3)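 2 nM NS3/4A protease (GT1a, R155K and D168A constructs) pre-incubated 1 h at room temperature with increasing inhibitor concentrations in 50 mM Tris pH 7.5, 5% glycerol, 10 mM DTT, 0.6 mM LDAO, 4% DMSO. Three independent data sets per inhibitor and construct; ΔG of binding derived from Ki as ΔG=RTlnKi.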

[10] = target: GT1a R155K NS3/4A protease; assay type: biochemical, Hepatitis C virus; conditions: fold change in Ki, R155K relative to WT
Procedure, shortened: as §3

[11] = test system: drug resistant HCV variants (R155K, A156T, D168A, D168V); assay: Replicon antiviral assays, collective statements on drug resistant variants; assay type: cell-based, Hepatitis C virus; conditions: range over all variants tested
Experimental: Mutations (R155K, A516T, D168A and D168V) were constructed by site-directed mutagenesis using a Con1 (genotype 1b) luciferase reporter replicon containing the H77 (genotype 1a) NS3 sequence.
Replicon RNA of each protease variant was introduced into Huh7 cells by electroporation. Replication was then assessed in the presence of increasing concentrations of protease inhibitors by measuring luciferase activity (relative light units) 96 h after electroporation.
Mutations (R155K, D168A and A156T) were constructed by site-directed mutagenesis using a Con1 (genotype 1b) luciferase reporter replicon containing the H77 (genotype 1a) NS3 sequence.^6 Replicon RNA of each protease variant was introduced into Huh7 cells by electroporation. Replication was then assessed in the presence of increasing concentrations of protease inhibitors by measuring luciferase activity (relative light units) 96 h after electroporation.

C=C[C@@H]1C[C@]1(NC(=O)[C@@H]1C[C@@H](Oc2nc3cc(OC)ccc3nc2C)CN1C(=O)[C@@H](NC(=O)OC1CCCC1)C(C)(C)C)C(=O)NS(=O)(=O)C1(C)CC1 [Compound 12b, Cyclopentyl ((S)-1-((2S,4R)-4-((7-methoxy-3-methylquinoxalin-2-yl)oxy)-2-(((1R,2S)-1-(((1-methylcyclopropyl)sulfonyl)carbamoyl)-2-vinylcyclopropyl)carbamoyl)pyrrolidin-1-yl)-3,3-dimethyl-1-oxobutan-2-yl)carbamate]
Ki ([1]; read-out: Ki (nM) D168A, Table 8, linear inhibitors): 140 ± 13 nM
Ki ([1]; read-out: Ki D168A, D168A variant): 140 ± 13 nM
Ki D168A (fold change) [2]: 20
Ki ([3]; read-out: Ki (nM) WT, Table 8, linear inhibitors): 7.1 ± 1.1 nM
Ki ([3]; read-out: Ki WT, wild-type HCV NS3/4A protease): 7.1 ± 1.1 nM
EC50 [4]: 4.5 nM
EC50 ([5]; Hepatitis C virus, Huh-7, read-out: Replicon EC50 (nM) A156T, Table 9): 87 nM
Replicon EC50 (Fold change) A156T ([5]; Table 9, relative to WT): (19) fold
EC50 ([6]; Hepatitis C virus, Huh-7, read-out: Replicon EC50 (nM) D168A, Table 9): 45 nM
Replicon EC50 (Fold change) D168A ([6]; Table 9, relative to WT): (10) fold
EC50 ([7]; Hepatitis C virus, Huh-7, read-out: Replicon EC50 (nM) R155K, Table 9): 28 nM
Replicon EC50 (Fold change) R155K ([7]; Table 9, relative to WT): (6.2) fold
EC50 ([8]; Hepatitis C virus, Huh-7, read-out: Replicon EC50 (nM) D168V, Table 9): 59 nM
Replicon EC50 (Fold change) D168V ([8]; Table 9, relative to WT): (13) fold
Ki ([9]; read-out: Ki (nM) R155K, Table 8, linear inhibitors): 10 ± 1.3 nM
Ki ([9]; read-out: Ki R155K, R155K variant): 10 ± 1.3 nM
Ki R155K (fold change) [10]: 1.4
fold loss in replicon potency against drug resistant variants compared to WT [11]: 5-20 fold

— patent US11472778B2, “Hepatitis C virus NS3/4A protease inhibitors” (priority 2017, dated 2022)
